Assay results: the kinase profiling compilation of Christmann-Franck et al. (2016)

Experiments:
Assay in all cases: radiometric filter-binding kinase assay, Kinase HotSpot
Conditions in all cases: compound 0.5 µM; ATP 10 µM
ALK (human) = ALK (human) (UniProt Q9UM73)
SRPK2 (human) = SRPK2 (human) (UniProt P78362)
ABL2 (human) = ABL2 (human) (UniProt P42684)
DDR2 (human) = DDR2 (human) (UniProt Q16832)
FLT3 (human) = FLT3 (human) (UniProt P36888)
LTK (human) = LTK (human) (UniProt P29376)
MST1R (human) = MST1R (human) (UniProt Q04912)
EPHA1 (human) = EPHA1 (human) (UniProt P21709)
TNK2 (human) = TNK2 (human) (UniProt Q07912)
CDK7 CCNH MNAT1 (human) = CDK7 CCNH MNAT1 (human) (UniProt P50613+P51948+P51946)
DSTYK (human) = DSTYK (human) (UniProt Q6XUX3)
MYLK (human) = MYLK (human) (UniProt Q15746)
PASK (human) = PASK (human) (UniProt Q96RG2)
SLK (human) = SLK (human) (UniProt Q9H2G2)
FGR (human) = FGR (human) (UniProt P09769)
CSNK2A2 (human) = CSNK2A2 (human) (UniProt P19784)
STK16 (human) = STK16 (human) (UniProt O75716)
HIPK2 (human) = HIPK2 (human) (UniProt Q9H2X6)
TAOK2 (human) = TAOK2 (human) (UniProt Q9UL54)
PRKD1 (human) = PRKD1 (human) (UniProt Q15139)
TYRO3 (human) = TYRO3 (human) (UniProt Q06418)
JAK2 JH1 JH2 (human) = JAK2 JH1 JH2 (human) (UniProt O60674)
TAOK3 (human) = TAOK3 (human) (UniProt Q9H2K8)
DCLK2 (human) = DCLK2 (human) (UniProt Q8N568)
MAPK9 (human) = MAPK9 (human) (UniProt P45984)
OXSR1 (human) = OXSR1 (human) (UniProt O95747)
AURKC (human) = AURKC (human) (UniProt Q9UQB9)
CSNK1G3 (human) = CSNK1G3 (human) (UniProt Q9Y6M4)
CLK2 (human) = CLK2 (human) (UniProt P49760)
SIK2 (human) = SIK2 (human) (UniProt Q9H0K1)
MAP3K14 (human) = MAP3K14 (human) (UniProt Q99558)
DYRK1A (human) = DYRK1A (human) (UniProt Q13627)
MAP2K2 (human) = MAP2K2 (human) (UniProt P36507)
FGFR2 (human) = FGFR2 (human) (UniProt P21802)
PRKACA (human) = PRKACA (human) (UniProt P17612)
CAMKK1 (human) = CAMKK1 (human) (UniProt Q8N5S9)
KIT (human) = KIT (human) (UniProt P10721)
PLK2 (human) = PLK2 (human) (UniProt Q9NYY3)
CAMK2A (human) = CAMK2A (human) (UniProt Q9UQM7)
AURKB (human) = AURKB (human) (UniProt Q96GD4)
PRKCE (human) = PRKCE (human) (UniProt Q02156)
STK24 (human) = STK24 (human) (UniProt Q9Y6E0)

Chain of FGFR2 (human) (P21802 whole entry, looked up): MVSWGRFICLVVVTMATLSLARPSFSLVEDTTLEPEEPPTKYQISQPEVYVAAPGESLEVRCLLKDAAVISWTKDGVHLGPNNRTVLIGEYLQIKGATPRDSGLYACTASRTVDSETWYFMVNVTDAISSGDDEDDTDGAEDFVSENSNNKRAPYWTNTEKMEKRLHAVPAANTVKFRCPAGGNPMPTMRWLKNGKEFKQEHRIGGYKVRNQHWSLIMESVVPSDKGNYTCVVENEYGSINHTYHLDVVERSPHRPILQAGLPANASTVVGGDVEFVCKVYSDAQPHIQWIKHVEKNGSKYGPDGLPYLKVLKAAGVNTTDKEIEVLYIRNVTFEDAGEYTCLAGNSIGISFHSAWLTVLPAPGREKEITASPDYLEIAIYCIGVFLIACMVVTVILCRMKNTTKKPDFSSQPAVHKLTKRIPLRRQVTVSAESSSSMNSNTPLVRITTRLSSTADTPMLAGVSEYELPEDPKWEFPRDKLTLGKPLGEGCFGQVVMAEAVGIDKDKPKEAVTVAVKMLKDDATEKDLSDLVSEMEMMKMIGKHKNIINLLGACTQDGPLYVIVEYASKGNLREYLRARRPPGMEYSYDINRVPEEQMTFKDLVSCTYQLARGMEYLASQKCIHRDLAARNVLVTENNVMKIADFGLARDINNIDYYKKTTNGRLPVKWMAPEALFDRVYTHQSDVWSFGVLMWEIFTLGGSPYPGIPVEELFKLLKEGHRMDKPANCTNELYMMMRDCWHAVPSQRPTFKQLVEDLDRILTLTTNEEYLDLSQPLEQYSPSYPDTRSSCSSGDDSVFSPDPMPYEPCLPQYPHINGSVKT
Chain of STK16 (human) (O75716 whole entry, looked up): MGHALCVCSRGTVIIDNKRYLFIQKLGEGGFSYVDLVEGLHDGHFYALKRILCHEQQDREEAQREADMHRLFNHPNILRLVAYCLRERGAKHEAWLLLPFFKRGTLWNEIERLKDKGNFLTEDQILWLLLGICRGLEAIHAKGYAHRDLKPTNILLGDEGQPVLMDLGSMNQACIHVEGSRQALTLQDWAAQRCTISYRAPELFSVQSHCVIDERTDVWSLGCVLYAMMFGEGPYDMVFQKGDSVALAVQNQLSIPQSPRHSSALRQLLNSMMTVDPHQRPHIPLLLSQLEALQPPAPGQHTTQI
Chain of FLT3 (human) (P36888 whole entry, looked up): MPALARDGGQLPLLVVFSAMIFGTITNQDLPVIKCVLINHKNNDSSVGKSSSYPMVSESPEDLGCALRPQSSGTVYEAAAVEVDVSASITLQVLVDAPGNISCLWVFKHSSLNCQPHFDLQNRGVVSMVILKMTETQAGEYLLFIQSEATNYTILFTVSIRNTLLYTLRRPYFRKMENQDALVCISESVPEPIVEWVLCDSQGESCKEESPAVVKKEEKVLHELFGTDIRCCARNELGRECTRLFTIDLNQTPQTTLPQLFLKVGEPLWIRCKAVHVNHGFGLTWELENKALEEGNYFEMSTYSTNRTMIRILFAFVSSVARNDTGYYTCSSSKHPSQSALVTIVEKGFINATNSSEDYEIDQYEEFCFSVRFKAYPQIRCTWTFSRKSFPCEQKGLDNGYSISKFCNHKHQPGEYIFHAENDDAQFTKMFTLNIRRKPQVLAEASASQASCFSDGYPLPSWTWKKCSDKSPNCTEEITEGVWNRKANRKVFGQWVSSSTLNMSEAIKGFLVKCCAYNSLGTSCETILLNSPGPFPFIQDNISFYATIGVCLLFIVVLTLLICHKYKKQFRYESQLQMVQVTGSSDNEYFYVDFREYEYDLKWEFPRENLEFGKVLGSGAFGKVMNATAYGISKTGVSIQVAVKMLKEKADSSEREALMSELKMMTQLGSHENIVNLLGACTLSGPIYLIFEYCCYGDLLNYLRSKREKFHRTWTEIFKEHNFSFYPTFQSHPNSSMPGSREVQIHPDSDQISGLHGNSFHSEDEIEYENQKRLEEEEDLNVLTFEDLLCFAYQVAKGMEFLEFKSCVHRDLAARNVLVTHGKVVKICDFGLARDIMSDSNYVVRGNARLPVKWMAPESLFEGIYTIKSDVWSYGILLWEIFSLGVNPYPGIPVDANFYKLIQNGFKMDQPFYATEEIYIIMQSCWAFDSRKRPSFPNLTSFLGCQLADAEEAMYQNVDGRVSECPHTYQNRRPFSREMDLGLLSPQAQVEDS
Chain of MAP3K14 (human) (Q99558 whole entry, looked up): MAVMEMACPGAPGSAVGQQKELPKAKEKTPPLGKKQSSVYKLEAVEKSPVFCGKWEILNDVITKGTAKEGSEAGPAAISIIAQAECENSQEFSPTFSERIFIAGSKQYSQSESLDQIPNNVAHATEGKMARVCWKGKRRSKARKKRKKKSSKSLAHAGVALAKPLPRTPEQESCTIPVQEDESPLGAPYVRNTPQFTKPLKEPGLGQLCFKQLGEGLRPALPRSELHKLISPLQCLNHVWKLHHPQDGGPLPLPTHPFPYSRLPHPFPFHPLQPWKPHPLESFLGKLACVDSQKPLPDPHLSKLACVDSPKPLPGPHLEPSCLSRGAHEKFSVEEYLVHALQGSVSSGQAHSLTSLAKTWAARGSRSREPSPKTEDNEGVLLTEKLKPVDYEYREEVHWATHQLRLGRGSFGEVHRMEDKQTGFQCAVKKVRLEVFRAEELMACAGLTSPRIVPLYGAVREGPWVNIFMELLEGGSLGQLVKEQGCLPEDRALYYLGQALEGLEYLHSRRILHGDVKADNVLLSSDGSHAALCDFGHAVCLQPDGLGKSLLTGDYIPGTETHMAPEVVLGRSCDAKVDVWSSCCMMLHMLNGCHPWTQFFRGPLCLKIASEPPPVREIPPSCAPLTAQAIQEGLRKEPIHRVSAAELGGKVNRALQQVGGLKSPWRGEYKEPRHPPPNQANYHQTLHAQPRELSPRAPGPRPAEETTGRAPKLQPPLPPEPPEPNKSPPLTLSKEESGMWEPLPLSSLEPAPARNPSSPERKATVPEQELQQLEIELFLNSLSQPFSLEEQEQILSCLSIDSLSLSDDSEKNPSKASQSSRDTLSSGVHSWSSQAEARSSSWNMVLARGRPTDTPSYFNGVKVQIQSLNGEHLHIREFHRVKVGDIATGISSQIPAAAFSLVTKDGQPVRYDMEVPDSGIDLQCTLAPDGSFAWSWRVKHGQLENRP
Chain of ALK (human) (Q9UM73 whole entry, looked up): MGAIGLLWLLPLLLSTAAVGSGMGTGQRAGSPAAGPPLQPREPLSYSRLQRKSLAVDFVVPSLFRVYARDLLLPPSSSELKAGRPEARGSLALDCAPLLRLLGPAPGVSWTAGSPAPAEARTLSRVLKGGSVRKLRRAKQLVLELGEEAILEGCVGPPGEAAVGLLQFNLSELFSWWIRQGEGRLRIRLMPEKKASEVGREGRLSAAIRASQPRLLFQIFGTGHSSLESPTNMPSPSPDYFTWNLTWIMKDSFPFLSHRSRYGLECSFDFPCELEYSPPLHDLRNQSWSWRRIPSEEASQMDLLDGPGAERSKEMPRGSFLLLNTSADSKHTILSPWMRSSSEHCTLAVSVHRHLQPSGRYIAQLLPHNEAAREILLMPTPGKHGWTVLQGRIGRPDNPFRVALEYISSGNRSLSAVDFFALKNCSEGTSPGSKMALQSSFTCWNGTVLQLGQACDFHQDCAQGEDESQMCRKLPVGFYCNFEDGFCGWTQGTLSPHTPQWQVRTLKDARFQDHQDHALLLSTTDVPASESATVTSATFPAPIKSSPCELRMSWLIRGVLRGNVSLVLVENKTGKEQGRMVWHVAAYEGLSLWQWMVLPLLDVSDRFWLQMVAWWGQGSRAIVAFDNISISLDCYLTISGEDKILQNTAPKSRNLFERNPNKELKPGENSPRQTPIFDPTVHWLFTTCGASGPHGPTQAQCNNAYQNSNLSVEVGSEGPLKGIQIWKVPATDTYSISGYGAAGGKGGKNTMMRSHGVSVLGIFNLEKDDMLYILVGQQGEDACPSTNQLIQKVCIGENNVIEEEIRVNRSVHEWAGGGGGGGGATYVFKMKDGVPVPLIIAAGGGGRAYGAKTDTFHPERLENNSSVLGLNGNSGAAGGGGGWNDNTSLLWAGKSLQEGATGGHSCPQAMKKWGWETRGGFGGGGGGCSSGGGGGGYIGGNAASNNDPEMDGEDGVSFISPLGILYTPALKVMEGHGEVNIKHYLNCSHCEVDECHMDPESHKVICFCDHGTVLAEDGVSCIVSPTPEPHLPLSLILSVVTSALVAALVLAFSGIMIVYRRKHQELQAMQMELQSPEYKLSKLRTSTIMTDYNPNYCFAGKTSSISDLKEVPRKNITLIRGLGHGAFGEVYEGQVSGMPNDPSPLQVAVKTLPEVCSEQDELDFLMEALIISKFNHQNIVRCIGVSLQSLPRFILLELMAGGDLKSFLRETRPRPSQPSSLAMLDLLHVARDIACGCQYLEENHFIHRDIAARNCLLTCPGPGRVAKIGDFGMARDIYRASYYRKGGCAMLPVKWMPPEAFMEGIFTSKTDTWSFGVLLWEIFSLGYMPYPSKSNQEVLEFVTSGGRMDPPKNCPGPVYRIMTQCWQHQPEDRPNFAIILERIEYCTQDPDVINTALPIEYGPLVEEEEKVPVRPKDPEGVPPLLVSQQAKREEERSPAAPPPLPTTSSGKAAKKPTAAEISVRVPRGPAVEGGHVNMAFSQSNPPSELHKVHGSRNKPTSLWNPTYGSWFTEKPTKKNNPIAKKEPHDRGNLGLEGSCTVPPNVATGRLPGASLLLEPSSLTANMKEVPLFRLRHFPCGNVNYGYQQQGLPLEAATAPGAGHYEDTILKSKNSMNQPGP
Chain of AURKC (human) (Q9UQB9 whole entry, looked up): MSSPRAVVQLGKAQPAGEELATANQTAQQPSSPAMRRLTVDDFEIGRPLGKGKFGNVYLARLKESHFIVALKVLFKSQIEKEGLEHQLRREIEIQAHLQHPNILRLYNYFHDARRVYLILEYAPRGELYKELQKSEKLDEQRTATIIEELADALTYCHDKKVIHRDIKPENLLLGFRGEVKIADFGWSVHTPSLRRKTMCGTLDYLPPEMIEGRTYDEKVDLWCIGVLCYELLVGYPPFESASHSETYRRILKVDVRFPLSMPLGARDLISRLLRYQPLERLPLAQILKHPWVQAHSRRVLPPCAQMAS

COc1ccc2c(c1)c(C1=C(c3c[nH]c4ccccc34)C(=O)NC1=O)cn2CCCN(C)C
residual activity (ALK (human)): 96% | residual activity (SRPK2 (human)): 88% | residual activity (ABL2 (human)): 77.7% | residual activity (DDR2 (human)): 101% | residual activity (FLT3 (human)): 23.2% | residual activity (LTK (human)): 81.9% | residual activity (MST1R (human)): 91.3% | residual activity (EPHA1 (human)): 76.2% | residual activity (TNK2 (human)): 77.9% | residual activity (CDK7 CCNH MNAT1 (human)): 88% | residual activity (DSTYK (human)): 82.8% | residual activity (MYLK (human)): 66.9% | residual activity (PASK (human)): 83.8% | residual activity (SLK (human)): 69.4% | residual activity (FGR (human)): 107% | residual activity (CSNK2A2 (human)): 99.3% | residual activity (STK16 (human)): 93.1% | residual activity (HIPK2 (human)): 96.3% | residual activity (TAOK2 (human)): 80.8% | residual activity (PRKD1 (human)): 68.8% | residual activity (TYRO3 (human)): 90.7% | residual activity (JAK2 JH1 JH2 (human)): 97.5% | residual activity (TAOK3 (human)): 78.2% | residual activity (DCLK2 (human)): 84.8% | residual activity (MAPK9 (human)): 86.1% | residual activity (OXSR1 (human)): 97.7% | residual activity (AURKC (human)): 90.4% | residual activity (CSNK1G3 (human)): 77.8% | residual activity (CLK2 (human)): 78% | residual activity (SIK2 (human)): 103% | residual activity (MAP3K14 (human)): 79.2% | residual activity (DYRK1A (human)): 84.7% | residual activity (MAP2K2 (human)): 103% | residual activity (FGFR2 (human)): 90.7% | residual activity (PRKACA (human)): 77.9% | residual activity (CAMKK1 (human)): 94.8% | residual activity (KIT (human)): 88.8% | residual activity (PLK2 (human)): 103% | residual activity (CAMK2A (human)): 102% | residual activity (AURKB (human)): 88.5% | residual activity (PRKCE (human)): 14.6% | residual activity (STK24 (human)): 36.6%

CCCCc1c(-c2ccc(OC)cc2)[nH]c2nccnc12
residual activity (ALK (human)): 96.7% | residual activity (SRPK2 (human)): 105% | residual activity (ABL2 (human)): 70.5% | residual activity (DDR2 (human)): 94.3% | residual activity (FLT3 (human)): 47.8% | residual activity (LTK (human)): 83.9% | residual activity (MST1R (human)): 104% | residual activity (EPHA1 (human)): 67.9% | residual activity (TNK2 (human)): 51.2% | residual activity (CDK7 CCNH MNAT1 (human)): 92.6% | residual activity (DSTYK (human)): 97.6% | residual activity (MYLK (human)): 96.8% | residual activity (PASK (human)): 97.6% | residual activity (SLK (human)): 76.2% | residual activity (FGR (human)): 57.1% | residual activity (CSNK2A2 (human)): 94.1% | residual activity (STK16 (human)): 58.7% | residual activity (HIPK2 (human)): 109% | residual activity (TAOK2 (human)): 90.1% | residual activity (PRKD1 (human)): 92.9% | residual activity (TYRO3 (human)): 98.6% | residual activity (JAK2 JH1 JH2 (human)): 77.9% | residual activity (TAOK3 (human)): 103% | residual activity (DCLK2 (human)): 101% | residual activity (MAPK9 (human)): 84.8% | residual activity (OXSR1 (human)): 102% | residual activity (AURKC (human)): 55.8% | residual activity (CSNK1G3 (human)): 89.2% | residual activity (CLK2 (human)): 85.3% | residual activity (SIK2 (human)): 98.4% | residual activity (MAP3K14 (human)): 105% | residual activity (DYRK1A (human)): 102% | residual activity (MAP2K2 (human)): 79.4% | residual activity (FGFR2 (human)): 89.5% | residual activity (PRKACA (human)): 96.6% | residual activity (CAMKK1 (human)): 105% | residual activity (KIT (human)): 82.9% | residual activity (PLK2 (human)): 94.9% | residual activity (CAMK2A (human)): 100% | residual activity (AURKB (human)): 64.5% | residual activity (PRKCE (human)): 102% | residual activity (STK24 (human)): 87.3%

COc1cc2ncnc(Nc3ccc(OCc4ccccc4)cc3)c2cc1OC
residual activity (ALK (human)): 103% | residual activity (SRPK2 (human)): 92.3% | residual activity (ABL2 (human)): 101% | residual activity (DDR2 (human)): 100% | residual activity (FLT3 (human)): 56.4% | residual activity (LTK (human)): 98.6% | residual activity (MST1R (human)): 106% | residual activity (EPHA1 (human)): 102% | residual activity (TNK2 (human)): 53.1% | residual activity (CDK7 CCNH MNAT1 (human)): 98.8% | residual activity (DSTYK (human)): 95.9% | residual activity (MYLK (human)): 95% | residual activity (PASK (human)): 98.6% | residual activity (SLK (human)): 76.4% | residual activity (FGR (human)): 72.2% | residual activity (CSNK2A2 (human)): 95.3% | residual activity (STK16 (human)): 106% | residual activity (HIPK2 (human)): 111% | residual activity (TAOK2 (human)): 106% | residual activity (PRKD1 (human)): 101% | residual activity (TYRO3 (human)): 86.9% | residual activity (JAK2 JH1 JH2 (human)): 94.3% | residual activity (TAOK3 (human)): 91.7% | residual activity (DCLK2 (human)): 102% | residual activity (MAPK9 (human)): 106% | residual activity (OXSR1 (human)): 110% | residual activity (AURKC (human)): 84.8% | residual activity (CSNK1G3 (human)): 92.9% | residual activity (CLK2 (human)): 102% | residual activity (SIK2 (human)): 73.7% | residual activity (MAP3K14 (human)): 84.4% | residual activity (DYRK1A (human)): 105% | residual activity (MAP2K2 (human)): 98.5% | residual activity (FGFR2 (human)): 103% | residual activity (PRKACA (human)): 101% | residual activity (CAMKK1 (human)): 126% | residual activity (KIT (human)): 63% | residual activity (PLK2 (human)): 109% | residual activity (CAMK2A (human)): 107% | residual activity (AURKB (human)): 50.3% | residual activity (PRKCE (human)): 99.4% | residual activity (STK24 (human)): 104%
